Test results: patent US11306054B2, “Propanediol monoacetate mononitrate” (DSM IP ASSETS B.V., priority 2017, dated 2022)

Tested on: S. epidermidis, C. xerosis, M. furfur, P. Acnes
Assay: Antimicrobial efficacy, challenge test, overall conclusion on the strains of table 1
Assay type: cell-based
Settings: conclusion from table 1; almost comparable to Phenonip
Description: The antimicrobial efficacy of propanediol monoacetate mononitrate (PDMAMN) is assessed in analogy to the regulatory challenge test method (NF EN ISO11930). The following test solutions were tested • 1. Inv 1: 400 mg PDMAMN in 1 ml PEG 400 were diluted with 40 mL physiological serum (0.85% NaCl) containing 7% Ethanol (˜1% of PDMAMN) • 2. Inv 2: 200 mg PDMAMN in 1 ml PEG 400 were diluted in 40 mL physiological serum (0.85% NaCl) containing 7% Ethanol (˜0.5% of PDMAMN) • 3. Inv 3: 40 mg 3-PDMAMN in 1 ml PEG 400 were diluted in 40 mL physiological serum (0.85% NaCl) containing 7% Ethanol (˜0.1% of PDMAMN) • 4. Ref 1: Physiological serum (0.85% NaCl) • 5. Ref 2: 1 mL PEG 400+40 mL physiological serum (0.85% NaCl) containing 7% Ethanol • 6. Control: 0.5% Phenonip in physiological serum (0.85% NaCl)
All test solutions were deposed in 96-deep well plates (1.6 ml/well). The wells were contaminated with the respective bacterial or the fungal strains as outlined in table 1*10^5 to 1*10^6 cfu/ml for the bacteria and 1*10^4 to 1*10^5 cfu/ml for the fungi to obtain the initial contamination as outlined in table 1, Zero. After the contamination, each well was thoroughly mixed to ensure a homogeneous distribution of the microorganism. Then each plate was incubated at 22° C. for 24 h. The counting of the (remaining) population was carried out 24 h after contamination.

SMILES: CC(=O)OCCCO[N+](=O)[O-] [propanediol monoacetate mononitrate, 1,3-propanediol monoacetate mononitrate]
- antimicrobial activity: excellent antimicrobial activity
